Assay results: BigSolDB 2.1

O=C1NC(=O)C(c2ccccc2)(c2ccccc2)N1
solubility (mole fraction)
Settings | 293.2 K | 298.2 K | 303.2 K | 308.2 K | 313.2 K
in n-propanol | 0.00263 | 0.00304 | 0.00329 | 0.00358 | 0.00396
in water | 1.29e-06 | 2.11e-06 | 2.42e-06 | 2.64e-06 | 2.94e-06
